Measurements published in ChEMBL document CHEMBL5712074, “Divergent clonal evolution of castration-resistant neuroendocrine prostate cancer” (Nat Med, 2016).
Calls of active or inactive are those of the source. The rule behind the calls is not given here.

Test system: NCI-H660
Experiment: Cytotoxicity against human NCI-H660 cells assessed as decrease in cell viability at 5 to 10 uM incubated for 48 hrs by CellTiter-Blue assay
Type: functional, cell-based
Settings: dose 5-10 µM

Q: For `CCCc1cc(C)[nH]c(=O)c1CNC(=O)c1cc(-c2ccnc(N3CCN(C)CC3)c2)cc2c1cnn2C(C)C`, which Activity is on record?
A: The Activity was “Active”.
